According to PubChem BioAssay (NCI):
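Protocol summary: plate cells (96-well), add compound at 5 concentrations, incubate 48 h, interpolate endpoints linearly. GI50: concentration for 50% inhibition of growth. Definition used: TGI = concentration required for complete inhibition of growth.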

Legend:
Test in all cases: NCI tumour cell line growth inhibition, 48 h
[1] = system: EKVX NSCLC
[2] = system: MALME-3M melanoma
[3] = system: NCI-H226 lung
[4] = system: NCI-H522 lung
[5] = system: SK-MEL-28 melanoma
[6] = system: SN12C renal
[7] = system: SR leukemia
[8] = system: TK-10 renal
[9] = system: NCI/ADR-RES ovarian
[10] = system: T-47D breast

| SMILES | TGI [1] [µM] | TGI [2] [µM] | TGI [3] [µM] | TGI [4] [µM] | TGI [5] [µM] | TGI [6] [µM] | TGI [7] [µM] | TGI [8] [µM] | GI50 [2] [µM] | GI50 [3] [µM] | GI50 [4] [µM] | GI50 [9] [µM] | TGI [9] [µM] | GI50 [5] [µM] | GI50 [6] [µM] | GI50 [10] [µM] | TGI [10] [µM] | GI50 [8] [µM] | GI50 [1] [µM] |
| --- | --- | --- | --- | --- | --- | --- | --- | --- | --- | --- | --- | --- | --- | --- | --- | --- | --- | --- | --- |
| NCCSSCc1ccccc1CSSCCN | > 100 | > 100 | > 100 | 27.8 | > 100 | > 100 | > 100 | > 100 |  |  |  |  |  |  |  |  |  |  |  |
| COc1cc(/C=C/c2cc(/C=C/c3ccc(O)c(OC)c3)n(C(=O)c3ccc(Cl)cc3)n2)ccc1O |  | 10.1 | 23.2 | 4.32 | 12.2 | 13 |  | 14.7 | 1.31 | 3.51 | 0.595 | 2.9 | 18 | 2.49 | 2.35 | 1.92 | 5.86 | 4.2 |  |
| C=CCNC(=O)NCCCCC(NC(C)=O)C(=O)NCc1ccccc1 (stereo not given) | > 100 | > 100 | > 100 | > 100 | > 100 | > 100 |  | > 100 |  |  |  |  |  |  |  |  |  |  |  |
| O=C(CSc1nc2c(n1Nc1ccccc1)-c1ccccc1SC2)Nc1nc(-c2ccc(Cl)cc2)cs1 | > 100 |  | > 100 | > 100 | > 100 | > 100 |  | 58.9 |  | 29.9 | 5.73 | 25.5 | > 100 | > 100 | > 100 | 26.6 | > 100 | 22.9 | 23.6 |
| Cc1c(C)c2ccc3oc4ccccc4c3c2oc1=O | > 100 | > 100 | > 100 | > 100 | > 100 | > 100 | > 100 | > 100 |  |  |  |  |  |  |  |  |  |  |  |
| O=C(NCCCCN1CCOCC1)c1cc2ccccc2o1 | > 100 | > 100 | > 100 | > 100 | > 100 | > 100 |  | > 100 | > 100 | > 100 | > 100 | > 100 | > 100 | > 100 | > 100 | > 100 | > 100 | > 100 | > 100 |
| CN(CCS(=O)(=O)N1C(=O)C2CCCN2C(=O)[C@@H]1Cc1ccccc1)C(=O)OCc1ccccc1 (stereo not given in full) | > 100 | > 100 | > 100 | > 100 | > 100 | > 100 | > 100 | > 100 |  |  |  |  |  |  |  |  |  |  |  |
| C=CSCCC(N)C(=O)O (stereo not given) | > 100 | > 100 | > 100 | > 100 | > 100 | > 100 | > 100 | > 100 |  |  |  |  |  |  |  |  |  |  |  |
| O=C1[C@H]2ON(c3ccccc3)C(c3ccc([N+](=O)[O-])cc3)[C@H]2C(=O)N1c1ccc(Cc2ccc(N3C(=O)[C@@H]4ON(c5ccccc5)C(c5ccc([N+](=O)[O-])cc5)[C@@H]4C3=O)cc2)cc1 (stereo not given in full) | > 100 | > 100 | > 100 | > 100 | > 100 | > 100 |  | > 100 |  |  |  |  |  |  |  |  |  |  |  |
| O=c1c2c(nc3n1CCS3)[nH]c1cc([N+](=O)[O-])ccc12 | > 100 | > 100 | > 100 | > 100 | > 100 | > 100 |  | > 100 | > 100 | > 100 | > 100 | > 100 | > 100 | > 100 | > 100 | 45 | > 100 | > 100 | > 100 |
| COc1cccc2c1c1ccc3c(c1n2C)C(=O)C=CC3=O |  | 27.1 | > 100 | 14.7 | 33.4 | 41.5 | 6.65 | 33.3 |  |  |  |  |  |  |  |  |  |  |  |
| COc1ccc2ncn(-c3cc(O[C@H](C)c4ccccc4C(F)(F)F)c(C(N)=O)s3)c2c1 | 13.1 | 9.51 | 12.4 | 2.51 | 8.54 | 7.74 |  | 7.22 | 4.5 | 3.07 | 0.0995 | 0.0586 | 0.185 | 2.64 | 1.19 | 2.86 | 7.2 | 1.33 | 1.33 |
| NNC(=O)C(=O)N/N=C(\CCCC(=O)Nc1ccc(Cl)cc1)CC(=O)c1ccc(F)cc1 | > 100 | > 100 | > 100 |  | > 100 | > 100 |  | > 100 |  |  |  |  |  |  |  |  |  |  |  |
| CCN(CC)CCCNc1nccc2c(C)c3c(cc12)c1cnccc1n3C | 1.52 |  |  |  | 1.47 | 1.75 |  | 3.26 |  |  |  |  |  |  |  |  |  |  |  |
| CC(C)(C)C1=CC(=C(P(=O)(O)O)P(=O)(O)O)C=C(C(C)(C)C)C1=O | > 50 | > 50 | > 50 | > 50 | > 50 |  |  | > 50 |  |  |  |  |  |  |  |  |  |  |  |
